Test results published in EP2686338B1, “FUNCTIONALIZED BIOMATERIALS FOR TISSUE REGENERATION” (Nanomed3d S.r.l., priority 2011, dated 2018).
“Also recorded” adds a separate entry of the source. Residues, ends and D or L forms follow the SMILES beside them.

Assays:
[1] = Rheology (frequency, time and strain sweeps); format: physicochemical; details: for G' pre-assembling: average storage modulus of SAPeptide solution, before PBS; for G' pre-assembling / G' post-assembling: 1-100 Hz; for G' post-assembling: average storage modulus of jellified scaffold, after PBS; for Onset point (% strain): strain percentage at rupture, strain sweep at 1 Hz, 25 C
Experimental: Rheological properties of the self-assembling peptides of the invention were determined using a controlled stress TA Instruments AR-2000ex rheometer (TA Instruments). A cone-and-plate geometry (acrylic cone diameter, 20 mm; angle, 1°; truncation gap 34 µm) was used. Preliminary strain sweeps were performed for each sample to define the linear viscoelastic region, thus ensuring that moduli were independent of strain. Time sweeps, after addition of PBS (1x) were recorded at 25 C (angular frequency ω=1 Hz) and continued till G' plateaued. Frequency sweeps, both for peptide water solutions and for self-assembled scaffolds, were performed at 25 C with the instrument in oscillatory mode at controlled strain of 1 %. Final strain sweeps was performed at 1Hz oscillatory frequency and at 25 C: onset point of failure was calculated by linear interpolation and subsequent determination of the intersection of the G' modes within the linear region and at material failure respectively.

murine NSCs [2] = assay: Imaging and cell proliferation (MTS) assay on assembled scaffolds, murine NSCs; format: cell-based; details: for cell morphology, adhesion and spreading: 7 DIV on assembled hydrogels; for cell viability (MTS, cell population): 7 DIV, scaffolds 10 mg/ml, vs control, P<0.005, n=5
Experimental: (§1) In vitro tests were performed as previously described (8), in order to assess whether the biomaterials (assembled hydrogels) obtained with the SAPs of the present invention influenced NSCs adhesion, survival and/or differentiation. SAPeptides (30 µl for each well at a concentration of 10 mg/ml) were assembled into 96 multiwells two hours before cell. Cells (at a concentration of 2x10^4 cells/cm^2) were seeded on the top-surface of each assembled scaffold. Initially, cells were cultured with basal medium supplemented with βFGF (10 ng/ml), added to enhance neuronal progeny differentiation. At 3 days in vitro (DIV), βFGF medium was replaced with Leukemia Inhibitory Factor (LIF, Chemicon) (20 ng/ml) and Brain Derived Neurotrophic Factor (BDNF, Peprotech) (20 ng/ml). Fresh medium was added every three days. For both viability and differentiation assays positive and negative controls consisted of Cultrex-BME® substrate (R&D systems) (1:100 dilution in basal medium) and untreated bottom well surfaces respectively. Cell viability was quantified via CellTiter 96® Aqueous Proliferation Assay (Promega) at 7 DIV as recommended in the Promega protocol. After calibrating the linear response between the cell number and absorbance values, proliferated cell populations were quantified (n=5) by using a Vmax microplate reader (Molecular Devices) at 490nm wavelength. Values, reported as means ± standard error of the mean, were blanked to their respective controls consisting of same substrates and cell culture media without cells.

murine NSCs [3] = assay: Immunofluorescence of differentiated NSC progeny on scaffolds, murine NSCs; format: cell-based; details: for percentages of neurons (βIIITubulin positive cells): scaffolds of stiffness 100, 500 and 1000 Pa, best values, softer scaffolds; for differentiated neurons (βIIITubulin positive cells) versus scaffold stiffness: stiffness 100, 500 and 1000 Pa, P<0.05, P<0.01
Experimental: as §1
(§2) Immunofluorescence tests were performed for assaying the phenotypes of the differentiated human and murine NSC progenies. In the case of KLP and Ac-KLP just murine NSC have been used. Ac-KLP and KLP scaffolds were prepared at different concentrations in order to display three different stiffness values (viz. 100, 500 and 1000 Pa). This was done to assess the influence of scaffold concentration (and consequently its stiffness) over NSC differentiation. All the other peptides were tested at 1% v/w concentration instead. The following antibodies were used: rabbit polyclonal against GFAP (1:500, DakoCytomation) for astrocytes, mouse monoclonal against βIII-Tubulin (1:500, Covance) for neurons, mouse monoclonal against GalC (1:200, Chemicon) and O4 (1:200, Chemicon) for oligodendrocyes. Secondary Abs were Goat anti Mouse Alexa 488 (1:1000, Molecular Probes), Goat anti Mouse Cy3 (1:1000, Jackson Immunoresearch), Goat anti Rabbit Cy3 (1:1000, Jackson Immunoresearch). Cell nuclei were counterstained with DAPI (Molecular Probes). Quantitative analyses were performed by counting 100-300 cells for each of 9 randomly chosen fields over a total of 3 independent experiments. Phase contrast and fluorescence images of the adhering cells were acquired via Zeiss microscopes Axioplan 2 and ApoTome System at one week after seeding.

mouse NSC = assay: NSC differentiation on exposure to soluble heptapeptides (immunofluorescence); format: cell-based; details: 12 DIV; peptide 0.1 mg/ml in media; Cultrex and Laminin coated wells; vs untreated NSCs, p<0.05
Experimental: In vitro tests were performed as previously described (8), in order to assess whether the heptapeptides obtained of the present invention influence NSCs differentiation.
Murine cells (at a concentration of 2x10^4 cells/cm^2) were seeded in each well (96 multi-well plate) previously coated with Cultrex-BME® substrate (R&D systems) (1:100 dilution in basal medium, overnight incubation) or with Laminin (Roche) (1:5 dilution in PBS 1x, pH 7.4, overnight incubation).
Initially, cells were cultured with basal medium supplemented with βFGF (10 ng/ml), added to enhance neuronal progeny differentiation. At 3 days in vitro (DIV), βFGF medium was replaced with Leukemia Inhibitory Factor (LIF, Chemicon) (20 ng/ml) and Brain Derived Neurotrophic Factor (BDNF, Peprotech) (20 ng/ml). Fresh medium was added every three days. The chosen peptides were dissolved in all cell culture media (but not in the coatings) at a concentration of 0.1 mg/ml.
Immunofluorescence tests were performed for assaying the phenotypes of the differentiated murine NSC progenies. The following antibodies were used: rabbit polyclonal against GFAP (1:500, DakoCytomation) for astrocytes and mouse monoclonal against βIII-Tubulin (1:500, Covance) for neurons. Secondary Abs were Goat anti Mouse Alexa 488 (1:1000, Molecular Probes), Goat anti Mouse Cy3 (1:1000, Jackson Immunoresearch), Cell nuclei were counterstained with DAPI (Molecular Probes). Quantitative analyses were performed by counting 100-300 cells for each of 9 randomly chosen fields over a total of 3 independent experiments.
Values, reported as means ± standard error of the mean (Figure 1A).

human NSCs [4] = assay: Imaging and cell proliferation (MTS) assay on assembled scaffolds, human NSCs; format: cell-based; details: for cell viability (MTS, cell population): 7 DIV, scaffolds 10 mg/ml, vs control, P<0.03, n=5
Experimental: as §1

human NSCs [5] = assay: Immunofluorescence of differentiated NSC progeny on scaffolds, human NSCs; format: cell-based; details: 1% scaffold; compared to Cultrex positive control
Experimental: as §1
as §2, with “Cell nuclei were counterstained with DAPI (Molecular Probes).” left out

[6] = 1% scaffold, compared to Cultrex positive control

SMILES: CC(C)C[C@H](NC(=O)CNC(=O)CNC(=O)CNC(=O)CNC(=O)[C@H](CO)NC(=O)[C@H](Cc1c[nH]c2ccccc12)NC(=O)CNC(=O)[C@@H]1CCCN1C(=O)[C@H](CC(C)C)NC(=O)[C@@H](N)CCCCN)C(=O)N[C@@H](CC(=O)O)C(=O)N[C@@H](CC(C)C)C(=O)N[C@@H](CCCCN)C(=O)N[C@@H](CC(C)C)C(=O)N[C@@H](CC(=O)O)C(=O)N[C@@H](CC(C)C)C(=O)N[C@@H](CCCCN)C(=O)N[C@@H](CC(C)C)C(=O)N[C@@H](CC(=O)O)C(=O)N[C@@H](CC(C)C)C(=O)N[C@@H](CCCCN)C(N)=O [KLP, NH2-KLPGWSG-GGG-LDLKLDLKLDLK-CONH2] (H-KLPGWSGGGGLDLKLDLKLDLK-NH2)
- G' pre-assembling ([1]; 1% w/v): 3.30 Pa
- G' post-assembling ([1]; 1% w/v): 51.38 Pa
- Onset point (% strain) [1]: 56.46%
- cell morphology, adhesion and spreading (murine NSCs [2]): fostered NSCs adhesion and spreading similarly to FAQ
- percentages of neurons (βIIITubulin positive cells) (murine NSCs [3]): above 50%
- differentiated neurons (βIIITubulin positive cells) versus scaffold stiffness (murine NSCs [3]): significant increments of differentiated neurons

SMILES: CC(C)C[C@H](NC(=O)[C@@H](N)CCCCN)C(=O)N1CCC[C@H]1C(=O)NCC(=O)N[C@@H](Cc1c[nH]c2ccccc12)C(=O)N[C@@H](CO)C(=O)NCC(N)=O [#KLP, NH2-KLPGWSG-CONH2] (H-KLPGWSG-NH2)
- percentage of differentiated neurons (Beta III Tubulin staining) (mouse NSC): significant increase; also recorded: Highest increase of the neuronal phenotype

SMILES: CC(C)C[C@H](NC(=O)CNC(=O)CNC(=O)CNC(=O)[C@H](Cc1c[nH]cn1)NC(=O)[C@H](CC(=O)O)NC(=O)[C@H](CCCNC(=N)N)NC(=O)[C@@H]1CCCN1C(=O)[C@H](CC(C)C)NC(=O)[C@H](Cc1c[nH]cn1)NC(=O)[C@@H](N)CCC(N)=O)C(=O)N[C@@H](CC(=O)O)C(=O)N[C@@H](CC(C)C)C(=O)N[C@@H](CCCCN)C(=O)N[C@@H](CC(C)C)C(=O)N[C@@H](CC(=O)O)C(=O)N[C@@H](CC(C)C)C(=O)N[C@@H](CCCCN)C(=O)N[C@@H](CC(C)C)C(=O)N[C@@H](CC(=O)O)C(=O)N[C@@H](CC(C)C)C(=O)N[C@@H](CCCCN)C(N)=O [QHL, NH2-QHLPRDH-GGG-LDLKLDLKLDLK-CONH2] (H-QHLPRDHGGGLDLKLDLKLDLK-NH2)
- G' pre-assembling ([1]; 1% w/v): 4.53 Pa
- G' post-assembling ([1]; 1% w/v): 296.9 Pa
- Onset point (% strain) [1]: 28.58%
- cell viability (MTS, cell population) (murine NSCs [2]): significantly fostered cell viability; also recorded: significantly favored
- cell viability (MTS, cell population) (human NSCs [4]): significantly fostered cell viability; also recorded: significantly favored

SMILES: CC[C@H](C)[C@H](NC(=O)[C@H](C)NC(=O)[C@@H](N)Cc1c[nH]cn1)C(=O)N[C@@H](Cc1ccc(O)cc1)C(=O)N1CCC[C@H]1C(=O)N[C@@H](CCCNC(=N)N)C(=O)N[C@@H](Cc1c[nH]cn1)C(N)=O [#HAI, NH2-HAIYPRH-CONH2]
- percentage of differentiated neurons (Beta III Tubulin staining) (mouse NSC): significant increase

SMILES: CC(C)C[C@H](NC(=O)[C@@H]1CCCN1C(=O)[C@H](C)NC(=O)[C@H](CCCNC(=N)N)NC(=O)[C@@H](NC(=O)[C@H](CCC(=O)O)NC(=O)CN)[C@@H](C)O)C(N)=O [#GET, NH4-GETRAPL-CONH2] (H-GETRAPL-NH2)
- percentage of differentiated neurons (Beta III Tubulin staining) (mouse NSC): significant increase

SMILES: CC(C)C[C@H](NC(=O)CNC(=O)CNC(=O)CNC(=O)[C@@H]1CCCN1C(=O)[C@@H]1CCCN1C(=O)[C@@H](NC(=O)[C@H](CCCNC(=N)N)NC(=O)[C@H](CCC(N)=O)NC(=O)[C@H](C)NC(=O)[C@@H](N)Cc1ccccc1)C(C)C)C(=O)N[C@@H](CC(=O)O)C(=O)N[C@@H](CC(C)C)C(=O)N[C@@H](CCCCN)C(=O)N[C@@H](CC(C)C)C(=O)N[C@@H](CC(=O)O)C(=O)N[C@@H](CC(C)C)C(=O)N[C@@H](CCCCN)C(=O)N[C@@H](CC(C)C)C(=O)N[C@@H](CC(=O)O)C(=O)N[C@@H](CC(C)C)C(=O)N[C@@H](CCCCN)C(N)=O [FAQ, NH2-FAQRVPP-GGG-LDLKLDLKLDLK-CONH2] (H-FAQRVPPGGGLDLKLDLKLDLK-NH2)
- G' pre-assembling ([1]; 1% w/v): 6.66 Pa
- G' post-assembling ([1]; 1% w/v): 142.7 Pa
- Onset point (% strain) [1]: 25.43%
- cell morphology, adhesion and spreading (murine NSCs [2]): spread and branched cells
- cell viability (MTS, cell population) (murine NSCs [2]): significantly fostered cell viability; also recorded: cell population was bigger
- cell morphology, adhesion and spreading (human NSCs [4]; 7 DIV on assembled hydrogels): spread and branched cells
- cell viability (MTS, cell population) (human NSCs [4]): significantly fostered cell viability; also recorded: cell population was bigger
- number of neurons (murine NSCs [3]; [6]): significantly higher
- number of oligodendrocytes (murine NSCs [3]; [6]): significantly higher
- number of neurons (human NSCs [5]): significantly higher
- number of oligodendrocytes (human NSCs [5]): significantly higher

SMILES: CC(=O)N[C@@H](CCCCN)C(=O)N[C@@H](CC(C)C)C(=O)N1CCC[C@H]1C(=O)NCC(=O)N[C@@H](Cc1c[nH]c2ccccc12)C(=O)N[C@@H](CO)C(=O)NCC(=O)NCC(=O)NCC(=O)NCC(=O)N[C@@H](CC(C)C)C(=O)N[C@@H](CC(=O)O)C(=O)N[C@@H](CC(C)C)C(=O)N[C@@H](CCCCN)C(=O)N[C@@H](CC(C)C)C(=O)N[C@@H](CC(=O)O)C(=O)N[C@@H](CC(C)C)C(=O)N[C@@H](CCCCN)C(=O)N[C@@H](CC(C)C)C(=O)N[C@@H](CC(=O)O)C(=O)N[C@@H](CC(C)C)C(=O)N[C@@H](CCCCN)C(N)=O [Ac-KLP, Ac-KLPGWSG-GGG-LDLKLDLKLDLK-CONH2] (Ac-KLPGWSGGGGLDLKLDLKLDLK-NH2)
- G' and G" values at different concentrations ([1]; 1% w/v, 2% w/v and 3% w/v): increased with concentration increments
- G' pre-assembling ([1]; 1% w/v): 2.88 Pa
- G' post-assembling ([1]; 1% w/v): 91.2 Pa
- Onset point (% strain) [1]: 47.82%
- percentages of neurons (βIIITubulin positive cells) (murine NSCs [3]): above 50%
- differentiated neurons (βIIITubulin positive cells) versus scaffold stiffness (murine NSCs [3]): significant increments of differentiated neurons
